Measurements: ChEMBL document CHEMBL1201862, “PubChem BioAssay data set” (2004)
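Test compounds were applied to cells in 96-well plates for 48 hours at 5 doses. Here, GI50 denotes the concentration required for 50% inhibition of growth.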 The source made the active and inactive calls. Cut-off read from the data, not from the text of the source: active = GI50 up to about 1.1 µM and inactive = higher.

Key:
Test in all cases: inhibition of tumour cell growth, NCI panel, 48 h
SK-MEL-28 = test system: SK-MEL-28
MDA-MB-231 = test system: MDA-MB-231
SF-268 = test system: SF-268
RXF 393 = test system: RXF 393
RPMI-8226 = test system: RPMI-8226
OVCAR-8 = test system: OVCAR-8
BT-549 = test system: BT-549
SK-OV-3 = test system: SK-OV-3
IGROV-1 = test system: IGROV-1
SW-620 = test system: SW-620
A498 = test system: A498
SR = test system: SR
COLO 205 = test system: COLO 205
NCI-H460 = test system: NCI-H460
NCI-H522 = test system: NCI-H522
K562 = test system: K562
EKVX = test system: EKVX
SF-539 = test system: SF-539
OVCAR-3 = test system: OVCAR-3
DLD-1 = test system: DLD-1

Structure (SMILES) | GI50 (SK-MEL-28) | GI50 (MDA-MB-231) | GI50 (SF-268) | GI50 (RXF 393) | GI50 (RPMI-8226) | GI50 (OVCAR-8) | GI50 (BT-549) | GI50 (SK-OV-3) | GI50 (IGROV-1) | GI50 (SW-620) | GI50 (A498) | GI50 (SR) | GI50 (COLO 205) | GI50 (NCI-H460) | GI50 (NCI-H522) | GI50 (K562) | GI50 (EKVX) | GI50 (SF-539) | GI50 (OVCAR-3) | GI50 (DLD-1)
Oc1ccnc(SCc2ccc(Cl)cc2)n1 | > 100 µM (inactive) | > 100 µM (inactive) | > 100 µM (inactive) | > 100 µM (inactive) | 56.1 µM (inactive) | > 100 µM (inactive) | > 100 µM (inactive) | > 100 µM (inactive) | > 100 µM (inactive) | > 100 µM (inactive) | > 100 µM (inactive) | > 100 µM (inactive) | > 100 µM (inactive) | > 100 µM (inactive) | 62.2 µM (inactive) | > 100 µM (inactive) | > 100 µM (inactive) | > 100 µM (inactive) | 57.3 µM (inactive) | –
Nc1nc(O)c2[nH]cnc2[n+]1[O-] | > 100 µM (inactive) | > 100 µM (inactive) | > 100 µM (inactive) | > 100 µM (inactive) | > 100 µM (inactive) | > 100 µM (inactive) | > 100 µM (inactive) | > 100 µM (inactive) | > 100 µM (inactive) | > 100 µM (inactive) | > 100 µM (inactive) | 75.3 µM (inactive) | > 100 µM (inactive) | > 100 µM (inactive) | > 100 µM (inactive) | > 100 µM (inactive) | > 100 µM (inactive) | > 100 µM (inactive) | > 100 µM (inactive) | –
CCN1C(=O)C(C)S/C1=N\NC(=O)CSc1nc2ccccc2c(=O)n1CC (stereo unspecified) | > 100 µM (inactive) | > 100 µM (inactive) | 90.6 µM (inactive) | > 100 µM (inactive) | > 100 µM (inactive) | > 100 µM (inactive) | > 100 µM (inactive) | > 100 µM (inactive) | > 100 µM (inactive) | > 100 µM (inactive) | > 100 µM (inactive) | > 100 µM (inactive) | > 100 µM (inactive) | 3.12 µM (inactive) | > 100 µM (inactive) | 98.6 µM (inactive) | > 100 µM (inactive) | > 100 µM (inactive) | > 100 µM (inactive) | –
O=C(c1ccsc1)c1cc2c(s1)C(=O)c1ccsc1C2=O | 0.142 µM (active) | 0.0755 µM (active) | 0.165 µM (active) | 0.178 µM (active) | 0.136 µM (active) | 0.178 µM (active) | 0.0807 µM (active) | 1.61 µM (inactive) | 0.204 µM (active) | 0.17 µM (active) | 1.58 µM (inactive) | 1.87 µM (inactive) | 1.51 µM (inactive) | 0.184 µM (active) | 0.137 µM (active) | 0.184 µM (active) | 0.2 µM (active) | 0.0671 µM (active) | 0.0624 µM (active) | –
C=C(CCC/C(C)=C/C=C/[C@@H](C)CCCc1ccoc1)C[C@@H]1OC(=O)[C@H](C)[C@@H]1O | 10.1 µM (inactive) | 7.48 µM (inactive) | 9.31 µM (inactive) | 10.3 µM (inactive) | 12.8 µM (inactive) | 10.1 µM (inactive) | 8.95 µM (inactive) | 7.46 µM (inactive) | 10.7 µM (inactive) | 11.4 µM (inactive) | 7.26 µM (inactive) | 10.7 µM (inactive) | 8.43 µM (inactive) | 11 µM (inactive) | 7.08 µM (inactive) | 21.5 µM (inactive) | 9.2 µM (inactive) | 8.17 µM (inactive) | 7.13 µM (inactive) | –
CCOc1ccc(C2Oc3c(cccc3OC)C=C2[N+](=O)[O-])cc1OCC (stereo unspecified) | 2.24 µM (inactive) | 2.73 µM (inactive) | 11.6 µM (inactive) | 3 µM (inactive) | 2.27 µM (inactive) | 2 µM (inactive) | 5.96 µM (inactive) | 27.5 µM (inactive) | 4.92 µM (inactive) | 2.06 µM (inactive) | 9.57 µM (inactive) | 1.62 µM (inactive) | 3.68 µM (inactive) | 7.28 µM (inactive) | 1.84 µM (inactive) | 1.87 µM (inactive) | 16.7 µM (inactive) | 2.39 µM (inactive) | 4.91 µM (inactive) | –
O=C1/C(=C/C=C/c2ccccc2)CCC1CNc1ccccc1 (stereo unspecified) | 44.6 µM (inactive) | 22 µM (inactive) | 36.7 µM (inactive) | 19.8 µM (inactive) | 1.59 µM (inactive) | 37.4 µM (inactive) | 32.1 µM (inactive) | > 100 µM (inactive) | 23.4 µM (inactive) | 18.4 µM (inactive) | > 27 µM (inactive) | 3.52 µM (inactive) | 28.9 µM (inactive) | > 88.7 µM (inactive) | 9.62 µM (inactive) | 2.71 µM (inactive) | > 100 µM (inactive) | > 54.5 µM (inactive) | 23.7 µM (inactive) | –
Sc1ncc(-c2cncc(-c3cnc(S)nc3)n2)cn1 | > 100 µM (inactive) | > 100 µM (inactive) | > 100 µM (inactive) | > 100 µM (inactive) | > 100 µM (inactive) | > 100 µM (inactive) | > 100 µM (inactive) | > 100 µM (inactive) | > 100 µM (inactive) | > 100 µM (inactive) | 52.2 µM (inactive) | 85.1 µM (inactive) | > 100 µM (inactive) | > 100 µM (inactive) | > 100 µM (inactive) | > 100 µM (inactive) | > 100 µM (inactive) | > 100 µM (inactive) | > 100 µM (inactive) | –
Nc1ccc(SC23CC4CC(CC(C4)C2)C3)cc1 | > 100 µM (inactive) | > 100 µM (inactive) | 54.5 µM (inactive) | 27.5 µM (inactive) | > 100 µM (inactive) | > 100 µM (inactive) | > 100 µM (inactive) | > 100 µM (inactive) | > 100 µM (inactive) | > 100 µM (inactive) | > 100 µM (inactive) | > 100 µM (inactive) | > 100 µM (inactive) | > 100 µM (inactive) | > 100 µM (inactive) | > 100 µM (inactive) | > 100 µM (inactive) | > 100 µM (inactive) | > 100 µM (inactive) | –
CCC1(C(=O)OC)CCc2c(OC)ccc(OC)c2C1=O (stereo unspecified) | > 100 µM (inactive) | – | > 100 µM (inactive) | – | > 100 µM (inactive) | > 100 µM (inactive) | – | > 100 µM (inactive) | > 100 µM (inactive) | > 100 µM (inactive) | > 100 µM (inactive) | – | > 100 µM (inactive) | > 100 µM (inactive) | > 100 µM (inactive) | > 100 µM (inactive) | > 100 µM (inactive) | > 100 µM (inactive) | > 100 µM (inactive) | > 100 µM (inactive)
CN(C)CCCNC(=S)S | > 100 µM (inactive) | > 100 µM (inactive) | > 100 µM (inactive) | > 100 µM (inactive) | > 100 µM (inactive) | > 100 µM (inactive) | > 100 µM (inactive) | > 100 µM (inactive) | > 100 µM (inactive) | > 100 µM (inactive) | > 100 µM (inactive) | > 100 µM (inactive) | > 100 µM (inactive) | > 100 µM (inactive) | > 100 µM (inactive) | > 100 µM (inactive) | > 100 µM (inactive) | > 100 µM (inactive) | > 100 µM (inactive) | –
COC(=O)C12C3C4C1C1C2C3C41C(=O)O (stereo unspecified) | > 100 µM (inactive) | – | > 100 µM (inactive) | > 100 µM (inactive) | > 100 µM (inactive) | > 100 µM (inactive) | – | > 100 µM (inactive) | > 100 µM (inactive) | > 100 µM (inactive) | > 100 µM (inactive) | – | > 100 µM (inactive) | > 100 µM (inactive) | – | > 100 µM (inactive) | > 100 µM (inactive) | > 100 µM (inactive) | > 100 µM (inactive) | > 100 µM (inactive)
CCC12CC[C@H](C#N)N3CCc4c(n(c5ccccc45)C(=O)C1)C32 (stereo partly specified) | 15.2 µM (inactive) | – | 17.9 µM (inactive) | 13.3 µM (inactive) | 17.9 µM (inactive) | 19.9 µM (inactive) | – | 35.3 µM (inactive) | 24.8 µM (inactive) | 14.9 µM (inactive) | 13.3 µM (inactive) | – | 19.1 µM (inactive) | 13.3 µM (inactive) | – | 5.28 µM (inactive) | 23 µM (inactive) | 17.5 µM (inactive) | 13.3 µM (inactive) | 18.3 µM (inactive)
O=C(CBr)NCCc1c[nH]c2ccccc12 | 3.49 µM (inactive) | 2.23 µM (inactive) | 2.16 µM (inactive) | 1.09 µM (active) | 1.97 µM (inactive) | 3.33 µM (inactive) | 1.77 µM (inactive) | 2.67 µM (inactive) | 1.83 µM (inactive) | 2.03 µM (inactive) | 19 µM (inactive) | 0.344 µM (active) | 1.65 µM (inactive) | 6.44 µM (inactive) | 0.229 µM (active) | 1.44 µM (inactive) | 1.79 µM (inactive) | 1.81 µM (inactive) | 1.92 µM (inactive) | –
C[C@]12CC[C@H](O)C[C@H]1CC[C@@H]1[C@@H]2CC[C@]2(C)[C@@H](C3=CC(=O)OC3)[C@@H](O)C[C@]12O [GITOXIGENIN] | 5.13 µM (inactive) | 4.93 µM (inactive) | 0.845 µM (active) | 1.15 µM (inactive) | 2.77 µM (inactive) | 2.93 µM (inactive) | 1.89 µM (inactive) | 2.71 µM (inactive) | 2.86 µM (inactive) | 3.18 µM (inactive) | 2.72 µM (inactive) | 0.977 µM (active) | 2.61 µM (inactive) | 0.499 µM (active) | 0.435 µM (active) | 3.38 µM (inactive) | 0.785 µM (active) | 0.849 µM (active) | 0.457 µM (active) | –
